Experiments:
[1] = cited from earlier work; for hyperammonemia as adverse effect: literature
T-type Ca2+ currents = conditions: in vitro; cited from earlier work
[2] = system: cultured mouse spinal cord neurons; conditions: 10-30 μg/mL; cited from earlier work
carbonic anhydrase = conditions: fraction of the inhibition by acetazolamide; cited from earlier work
[3] = cited from earlier work
[4] = system: GABA/benzodiazepine receptor ionophore complex; conditions: in vitro; cited from earlier work
[5] = system: dopaminergic and serotonergic neurotransmission; conditions: in vivo microdialysis; cited from earlier work
[6] = human, in vivo
Source text: The pharmacovigilance data that were collected, reviewed and analyzed provided the following information in respect of the incidence of hyperammonemia. A total of 4 cases fulfilled the criteria of potential hyperammonemia cases. These cases were reviewed in detail for evaluation of possible safety signals. Two US cases were reported as either high ammonia levels or increased ammonia. Two Japanese cases were reported as hyperammonemia.
Of these, two (2) cases (both ZON1000262 and ZON1000346) had strong confounding factors and seem to be unrelated to zonisamide, but the possibility of zonisamide involvement cannot be completely excluded. The two cases of hyperammonemia originated from Japan and both involved adult patients. Both cases were serious and described as life-threatening. […]
Estimates of exposure, based upon retail and mail order prescriptions, indicate that the number of unique patients taking zonisamide capsules in the U.S. is about 37,276 (total prescriptions per year/average number of prescriptions per patient per year less a calculated percentage decrease based on estimated annual dropouts) in the time between approval in 2000 and December 2002. […] Similarly, the incidences of NMS estimated herein are unlikely to be higher than calculated. Based on the exposure data and number of hyperammonemia cases, the incidence of hyperammonemia is calculated to be about […].

sodium channels = conditions: in vitro; cited from earlier work
rat hippocampal slices = conditions: 10-30 μg/mL; cited from earlier work

Compound | hyperammonemia as adverse effect [1] | cases of hyperammonemia associated with the drug ([1]; since 1979, O'Neil et al. 2002) | effect on voltage-dependent, transient inward currents (T-type Ca2+ currents) (T-type Ca2+ currents) | postsynaptic GABA or glutamate responses [2] | synaptically-driven electrical activity [2] | carbonic anhydrase inhibition compared to acetazolamide (carbonic anhydrase) | hepatic enzyme induction ([3]; in vivo) | time required to achieve steady-state levels ([3]; upon reaching a stable dose or following dosage adjustment) | binding to the GABA/benzodiazepine receptor ionophore complex [4] | changes in chloride flux [4] | dopaminergic and serotonergic neurotransmission [5] | cases fulfilling the criteria of potential hyperammonemia cases [6] [cases] | incidence of hyperammonemia [6] | effect on sodium channels (sodium channels) | neuronal or glial uptake of [3H]-GABA (rat hippocampal slices)
CCCC(CCC)C(=O)O [valproate] | known to cause hyperammonemia | more than 30 cases | – | – | – | – | – | – | – | – | – | – | – | – | –
NC(=O)N1c2ccccc2C=Cc2ccccc21 [carbamazepine] | known to cause hyperammonemia | – | – | – | – | – | – | – | – | – | – | – | – | – | –
NS(=O)(=O)Cc1noc2ccccc12 [zonisamide, 1,2-benzisoxazole-3-methanesulfonamide] | – | – | reduces | without affecting | suppresses | 1/50 | not known to be a hepatic enzyme inducer | up to two weeks | binds to the GABA/benzodiazepine receptor ionophore complex in an allosteric fashion | does not produce changes in chloride flux | facilitates | 4 | about 1:1,222,453 | blocks sodium channels | without affecting

Reference: patent US20050154036A1, “Methods of using zonisamide as an adjunctive therapy for partial seizures” (Eisai Co., Ltd., priority 2004, published 2005)
